Results as given in US20220072083A1, “COMPOSITION FOR IMPROVING OR PREVENTING NONALCOHOLIC FATTY LIVER” (KOHJIN LIFE SCIENCES CO., LTD., priority 2015, published 2022).

Columns and labels:
[1] = tested on: Mice (C57/B6J, 8 weeks old male) fed with high-fat food
Source text: Mice (C57/B6J, 8 weeks old male) were divided into 4 groups (5 animals each), and the first group (DB) was freely fed with ordinary food (CertifiedDiet “MF” manufactured by Oriental Yeast Co., ltd.). The second group (HFD) was freely fed with high-fat food (High Fat Diet 32, manufactured by CLEA Japan, Inc.), […].
When the mouse was 20 weeks old, the body weight, the liver weight, the serum aspartate aminotransferase (AST), the alanine aminotransferase (ALT), the serum triglyceride (TG), the free fatty acid value (FFA) and the total cholesterol value (T-cho) were measured.

[2] = tested on: subjects who had NAFLD in 31 IU/L or more of ALT
[3] = HFD6 (6 mg/kg/day) and HFD60 (60 mg/kg/day) groups in comparison to the HFD group, 20 weeks old

N[C@@H](CCC(=O)N[C@@H](CS)C(=O)NCC(=O)O)C(=O)O [glutathione]
serum AST, ALT, TG, FFA, T-cho: comparison of HFD6 group and HFD60 group ([1]; 6 versus 60 mg/kg/day glutathione): decrease dependently on the concentration
serum ALT [1, 3]: significant decrease
serum AST [1, 3]: significant decrease
serum FFA (free fatty acid value) [1, 3]: significant decrease
serum T-cho (total cholesterol value) [1, 3]: significant decrease
serum TG (triglyceride value) [1, 3]: significant decrease
deposition of fat on the liver by high-fat food ([1]; concluded from liver weight and liver/body weight ratio): suppressed
liver weight ([1]; high-fat food mice, glutathione 6 and 60 mg/kg/day in water, 20 weeks old): decreased dependently on the concentration
body weight ([1]; high-fat food mice, glutathione 6 or 60 mg/kg/day in water): decrease of the body weight was recognized
improvement of ALT after the administration in comparison to ALT before the administration (0 wk) ([2]; Case IDs 1 to 9 (group affected), at least one week after initiation of administration): ≥ 20%
FibroScan (after treatment) CAP ([2]; after treatment, oral glutathione 300 mg per day, one subject (Case ID) per table row): 280 dBe
